According to patent US20170197935A1, “INHIBITORS OF DNA GYRASE FOR THE TREATMENT OF BACTERIAL INFECTIONS” (Vitas Pharma Research Private Limited, priority 2012, published 2017):
Converted amounts (≈) assume the structure as drawn. Read-outs that look alike come from different tables or passages of the source.

Columns and labels:
hERG [1] = molecular target: T1, hERG (Homo sapiens, UniProt Q12809); details: BMCL, 21, 7489-7495, 2011; cited from earlier work
[2] = led to discontinuation from clinical development; North American Journal of Medical Science, 4, 537-47, 2012; cited from earlier work
[3] = tested on: Staphylococcus aureus (ATCC 29213); test: MIC by microbroth dilution, Staphylococcus aureus ATCC 29213; format: cell-based; details: ATCC29213
Description: (§1) Shown below are the microbiological activities of representative compounds of Formula I of the invention. The compounds were tested by the microbroth dilution method (National committee for Clinical Laboratory Standards, 2011, […]-08) and the Minimum Inhibitory Concentration (MIC) was determined.

[4] = tested on: Methicillin resistant Staphylococcus aureus (ATCC 33591); test: MIC by microbroth dilution, MRSA ATCC 33591; format: cell-based
Method in brief: (§2)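 MIC read-out; standard microbroth dilution per NCCLS guideline M07-08.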

[5] = tested on: Streptococcus pneumoniae (ATCC 6301); test: MIC by microbroth dilution, Streptococcus pneumoniae ATCC 6301; format: cell-based; details: ATCC6301
Description: as §1

[6] = tested on: Enterococcus faecalis (ATCC 29212); test: MIC by microbroth dilution, Enterococcus faecalis ATCC 29212; format: cell-based; details: ATCC29212
Description: as §1

[7] = tested on: Moraxella catarrhalis (ATCC 8176); test: MIC by microbroth dilution, Moraxella catarrhalis ATCC 8176; format: cell-based; details: ATCC8176
Description: as §1

E. coli (ATCC 25922) = test: MIC by microbroth dilution, E. coli ATCC 25922; format: cell-based; details: Escherichia coli
Method in brief: as §2

[8] = tested on: K. pneumoniae (ATCC 700603); test: MIC by microbroth dilution, K. pneumoniae ATCC 700603; format: cell-based; details: Klebsiella pneumoniae, ATCC700603, Formula I compounds
Description: (§3) Shown below are the microbiological activities of representative compounds of Formula I of the invention. The compounds were tested by the microbroth dilution method (National committee for Clinical Laboratory Standards, 2011, M07-08) and the Minimum Inhibitory Concentration (MIC) was determined.
(§4) Analysis of microbiological activity of compounds shown below are the microbiological activities of representative compounds of Formula II of the invention. The compounds were tested by the microbroth dilution method as per the reference in Example 1.

MRSA E9823 = test: MIC against FQ resistant clinical strain MRSA E9823; format: cell-based; details: Staphylococcus aureus, fluoroquinolone resistant clinical strain, read-out: MIC against FQ resistant strains, MRSA E9823
Description: as §3
(§5) To test if compounds are able to overcome fluoroquinolone resistance, we have determined the MICS against Fluoroquinolone (FQ) resistant clinical strains of MRSA and E. coli.

MRSA E9749 = test: MIC against FQ resistant clinical strain MRSA E9749; format: cell-based; details: Staphylococcus aureus, fluoroquinolone resistant clinical strain, read-out: MIC against FQ resistant strains, MRSA E9749
Description: as §3, §5

E. coli E1851 = test: MIC against FQ resistant clinical strain E. coli E1851; format: cell-based; details: Escherichia coli, fluoroquinolone resistant clinical strain, read-out: MIC against FQ resistant strains, E. coli E1851
Description: (§6) The compounds were tested by the microbroth dilution method (National committee for Clinical Laboratory Standards, 2011, M07-08) and the Minimum Inhibitory Concentration (MIC) was determined.

E. coli U1306 = test: MIC against FQ resistant clinical strain E. coli U1306; format: cell-based; details: Escherichia coli, fluoroquinolone resistant clinical strain, read-out: MIC against FQ resistant strains, E. coli U1306
Description: as §6

E. coli U5690 = test: MIC against FQ resistant clinical strain E. coli U5690; format: cell-based; details: Escherichia coli, fluoroquinolone resistant clinical strain, read-out: MIC against FQ resistant strains, E. coli U5690
Description: as §6

E. coli 86 = test: MIC against FQ resistant clinical strain E. coli 86; format: cell-based; details: Escherichia coli, fluoroquinolone resistant clinical strain, read-out: MIC against FQ resistant strains, E. coli 86
Description: as §6

E. coli Gyrase = molecular target: T2, E. coli Gyrase (Escherichia coli, UniProt P0AES4+P0AES6); test: in vitro Gyrase supercoiling assay (Inspiralis kit); format: biochemical; details: 1 hour at 37° C., read-out: % inhibition of DNA supercoiling activity; for inhibition at 0.1 µM: 0.1 μM compound; for inhibition at 1 µM: 1 μM compound
T2 construct: purchased Inspiralis
Description: To test for target specificity, the activity of compounds was evaluated in an in vitro Gyrase assay using recombinant Gyrase protein as per the instructions of the assay kit (Inspiralis). The assay measures the ability of E. coli Gyrase to convert relaxed plasmid DNA into the supercoiled form. The enzyme is incubated with the substrate (relaxed DNA) in the presence and absence of compounds for 1 hour at 37° C. and the DNA is run on a gel at low voltage for several hours. The gel is then stained with Ethidium bromide and DNA in the different forms is quantified using DNA imaging and quantification software (Image Lab). The activity of the enzyme is proportional to the amount of supercoiled form detected.

MRSA 33591 = test: Mutation prevention concentration against MRSA 33591; format: cell-based
Description: (§7) The mutation prevention concentration or the concentration above which mutants are unlikely to be selected, was determined based on published protocols (Antimicrobial Agents and Chemotherapy, 45, 433-438, 2001).

[9] = Single dose pharmacokinetics in male Swiss albino mice; format: in vivo
Description: (§8) Compounds were dosed to male Swiss albino mice to determine the pharmacokinetic profiles.
as §8

[10] = tested on: S. aureus (MRSA ATCC 33591); test: Systemic infection model in mice against S. aureus (MRSA ATCC 33591); format: in vivo; details: 10 mg/kg i.v. one hour after infection and again 4 hours later, 15× lethal dose MRSA ATCC33591 intraperitoneally
Description: In order to evaluate the in vivo efficacy of the scaffold, we tested representative compounds for activity in the systemic infection model in mice (Antimicrobial Agents and Chemotherapy, 47, 2507-2512, 2003). In this model, a 15× medial lethal dose of the bacteria (MRSA ATCC33591) is administered to mice intraperiotoneally. An hour later, the compound is administered i.v. and again 4 hours later. VT-03-00061, was efficacious with a 50% survival at a dose of 10 mg/kg in this model.

hERG [11] = molecular target: T1, hERG; test: biochemical
Description: To test the ability of the VT-03 compounds to bind the hERG channel, membranes expressing the hERG channel were incubated with radiolabeled Astemizole and displacement of the labeled ligand in the presence of compounds was measured.
To test the ability of the VT-03 compounds (of Formula II) to bind the hERG channel, membranes expressing the hERG channel were incubated with radiolabeled Astemizole and displacement of the labeled ligand in the presence of compounds was measured.

E. faecalis ATCC 51299 = test: MIC by microbroth dilution, E. faecalis ATCC 51299; format: cell-based; details: Enterococcus faecalis, ATCC51299, Formula II compounds, read-out: Minimum Inhibitory Concentration (MIC) E. faecalis ATCC 51299
Description: as §3, §4

Acinetobacter BAA747 = test: MIC by microbroth dilution, Acinetobacter BAA747; format: cell-based; details: Formula II compounds, read-out: Minimum Inhibitory Concentration (MIC) Acinetobacter BAA747
Description: as §3, §4

Pseudomonas ATCC 27853 = test: MIC by microbroth dilution, Pseudomonas ATCC 27853; format: cell-based; details: ATCC27853, Formula II compounds, read-out: Minimum Inhibitory Concentration (MIC) Pseudomonas ATCC 27853
Description: as §3, §4

[12] = molecular target: T3, ciprofloxacin resistant recombinant Gyrase protein (with mutation S83L) (Escherichia coli, UniProt P0AES4+P0AES6, S83L); test: Gyrase supercoiling assay with ciprofloxacin resistant Gyrase (S83L); format: biochemical; details: read-out: Target specificity: % inhibition of supercoiling activity
T3 construct: purchased Inspiralis
Description: The enzyme is incubated with the substrate (relaxed DNA) in the presence and absence of compounds for 1 hour at 37° C. and the DNA is run on a gel at low voltage for several hours. The amount of supercoiled DNA is quantified using DNA imaging and quantification software (Image Lab). The activity of the enzyme is proportional to the amount of supercoiled form detected.

A. baumannii = test: Mutation prevention concentration and mutation frequency against A. baumannii; format: cell-based
Description: as §7
The mutation prevention concentration and mutation frequencies were determined based on published protocols, the reference of which is provided in Example 4.

[13] = ATCC33591, Formula I compounds, read-out: MIC Methicillin resistant Staphylococcus aureus (ATCC 33591)
[14] = ATCC25922, Formula I compounds, read-out: MIC E. coli (ATCC 25922)
[15] = mouse, in vivo, intravenous, 5 mg/kg b.w., single dose
[16] = mouse, in vivo, oral, 10 mg/kg b.w., single dose

Structure (SMILES)	MIC [3] [µg/mL]	MIC [4, 13] [µg/mL]	MIC [5] [µg/mL]	MIC [6] [µg/mL]	MIC [7] [µg/mL]	MIC (E. coli (ATCC 25922); [14]) [µg/mL]	MIC [8] [µg/mL]	MIC (MRSA E9823) [µg/mL]	MIC (MRSA E9749) [µg/mL]	MIC (E. coli E1851) [µg/mL]	MIC (E. coli U1306) [µg/mL]	MIC (E. coli U5690) [µg/mL]	MIC (E. coli 86) [µg/mL]	inhibition at 0.1 µM (E. coli Gyrase) [%]	inhibition at 1 µM (E. coli Gyrase) [%]	IC50 (hERG [11]) [µM]	also measured
COc1ccc2ncc(C#N)c(CCN3CCC(NCc4cc5c(cn4)OCS5)CC3)c2c1 [GSK299423]	–	–	–	–	–	–	–	–	–	–	–	–	–	–	–	–	hERG binding liability (in words) (hERG [1]): serious hERG binding liability
COc1ccc2ncc(F)c([C@@H](O)CC[C@@H]3CCN(CCSc4cccs4)C[C@@H]3C(=O)O)c2c1 [NXL-101]	–	–	–	–	–	–	–	–	–	–	–	–	–	–	–	–	QT prolongation (in words) [2]: causes QT prolongation
COc1ccc2ncc(=O)n(CCN3CCC(NCc4csc([N+](=O)[O-])c4)CC3)c2c1 [VT-03-00057]	0.12 (≈ 0.271 µM)	0.25 (≈ 0.564 µM)	0.5 (≈ 1.13 µM)	2 (≈ 4.51 µM)	0.5 (≈ 1.13 µM)	2 (≈ 4.51 µM)	> 32	0.25 (≈ 0.564 µM)	0.25 (≈ 0.564 µM)	2 (≈ 4.51 µM)	16 (≈ 36.1 µM)	8 (≈ 18 µM)	16 (≈ 36.1 µM)	61.4	90.6	–	–
COc1ccc2ncc(C#N)c(CCN3CCC(NCc4ccc(C)c([N+](=O)[O-])c4)CC3)c2c1 [VT-03-00061]	0.015 (≈ 0.0326 µM)	0.015 (≈ 0.0326 µM)	0.015 (≈ 0.0326 µM)	0.25 (≈ 0.544 µM)	0.12 (≈ 0.261 µM)	1 (≈ 2.18 µM)	8 (≈ 17.4 µM)	≤ 0.0075	0.015 (≈ 0.0326 µM)	0.5 (≈ 1.09 µM)	2 (≈ 4.35 µM)	2 (≈ 4.35 µM)	2 (≈ 4.35 µM)	99.8	99.7	> 30	Mutation prevention concentration (MRSA 33591): 0.12 µg/mL; oral bioavailability (in words) [9]: orally bioavailable; AUC(0-inf) [9, 15]: 368 ng·h/mL; Cmax [9, 15]: 400 ng/mL; half-life [9, 15]: 98.4 min; AUC(0-inf) [9, 16]: 104 ng·h/mL; Cmax [9, 16]: 51.5 ng/mL; half-life [9, 16]: 104 min; F % (Oral bioavaialbility) ([9]; oral 10 mg/kg vs intravenous 5 mg/kg): 11.51%; survival [10]: 50%
COc1ccc2ncc(=O)n(CCN3CCC(NCc4ccc(C)c([N+](=O)[O-])c4)CC3)c2c1 [VT-03-00062]	≤ 0.0075	0.015 (≈ 0.0332 µM)	0.015 (≈ 0.0332 µM)	0.12 (≈ 0.266 µM)	≤ 0.06	0.5 (≈ 1.11 µM)	8 (≈ 17.7 µM)	≤ 0.0075	0.015 (≈ 0.0332 µM)	–	–	–	–	91.5	98.7	–	–
Cc1ccc(CNC2CCN(CCn3c(=O)cnc4ccc(F)cc43)CC2)cc1F [VT-03-00122]	–	–	–	–	–	–	–	–	–	–	–	–	–	–	–	> 30	MIC ([4]; Formula II compounds, read-out: Minimum Inhibitory Concentration (MIC) MRSA ATCC 33591): 0.06 µg/mL (≈ 0.145 µM); MIC (E. coli (ATCC 25922); ATCC25922, Formula II compounds, read-out: Minimum Inhibitory Concentration (MIC) E. coli ATCC 25922): 0.25 µg/mL (≈ 0.606 µM); AUC(0-t) ([9]; mouse, in vivo, iv, 5 mg/kg): 242 ng·h/mL; Cmax ([9]; mouse, in vivo, iv, 5 mg/kg): 381 ng/mL; Tmax ([9]; mouse, in vivo, iv, 5 mg/kg): 9.6 min; half-life ([9]; mouse, in vivo, iv, 5 mg/kg): 29.4 min; bioavailability ([9]; mouse, in vivo, oral 10 mg/kg vs i.v. 5 mg/kg): 7.69%; AUC(0-t) ([9]; mouse, in vivo, oral, 10 mg/kg): 37.3 ng·h/mL; Cmax ([9]; mouse, in vivo, oral, 10 mg/kg): 28.1 ng/mL; Tmax ([9]; mouse, in vivo, oral, 10 mg/kg): 60 min; MIC (E. faecalis ATCC 51299): 0.5 µg/mL (≈ 1.21 µM); MIC (Acinetobacter BAA747): 0.25 µg/mL (≈ 0.606 µM); MIC (Pseudomonas ATCC 27853): 16 µg/mL (≈ 38.8 µM); inhibition at 0.1 µM [12]: 95.5%; inhibition at 1 µM [12]: 97.1%; Mutation prevention concentration against A. baumannii (A. baumannii): 16 µg/mL; Mutation frequency (A. baumannii; A. baumannii, at 8 μg/ml): 1.10 * 10^−8 at 8 μg/ml
